Reference: paper PMC10819771 (Pharmaceuticals, 2023)
Values joined by “and” are separate entries in the source; they are usually repeats but may differ in a detail not shown here. Identical values can stand only once. Like-named read-outs stand apart in the source and are kept apart here. Blank lines part the entries; values can stand above or below the compound they belong to.

How the values were obtained:
MDA-MB-231 = assay: MTT antiproliferative assay, MDA-MB-231; assay type: cell-based, human; settings: for IC50: Homo sapiens, MDA-MB-231, 72 h, MTT, 72 h, breast cancer cells, read-out: IC50 Values (μM) ± SEM MDA-MB-231; for Selectivity Index HEK293/MDA-MB-231: IC50 HEK293 / IC50 MDA-MB-231
Summary of the method: (§1)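 Treatment lasted 72 h at six concentrations (0.1–30.0 µM) on cells plated the night before. Read-out: MTT, 4 h, then A545 nm after DMSO solubilisation, relative to untreated cells; two or more independent experiments, five replicate wells.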

c-MYC = assay: Native electrospray mass spectrometry, c-MYC; assay type: binding; settings: 10 µM DNA, 20 µM ligand; for Bound DNA (%) c-MYC: 100 mM ammonium acetate
Protocol: These parameters ensured a good signal intensity without disrupting noncovalent complexes, which was verified using d[G4T4G4]2 as a control. Oligonucleotides were purchased lyophilized, and RP-cartridge purified from Eurogentec (Kanaka Eurogentec, Seraing, Belgium), then buffer exchanged with ammonium acetate (5 M; Sigma-Aldrich, Saint-Quentin-Fallavier, France) using Amicon Ultra (3 K cut-off; Merck Millipore, Cork, Ireland). Sample solutions were prepared by diluting the proper volume of oligonucleotide stock solutions to reach 10 µM of DNA and 20 µM of ligand, in 100 mM ammonium acetate. The solutions were incubated for 16 h at 4 °C before analysis. Kd were calculated as already described.

HeLa = assay: MTT antiproliferative assay, HeLa; assay type: cell-based, human; settings: for IC50: Homo sapiens, HeLa, MTT, 72 h, cervical cancer cells, read-out: IC50 Values (μM) ± SEM HeLa; for Selectivity Index HEK293/HeLa: IC50 HEK293 / IC50 HeLa
Summary of the method: as §1

FdxT = assay: FRET-melting, duplex control FdxT; assay type: binding; settings: ligand 2 μM, DNA 0.2 μM, 10 mM KCl, 90 mM LiCl, pH 7.2, hairpin duplex
telomerase = assay: Telomerase activity (TRAP assay) in MCF-7 cell lysates; assay type: biochemical, human; settings: MCF-7 cell lysate
Protocol: Telomerase activity was assessed using the TRAP assay kit (TRAPeze® RT telomerase detection kit, Chemicon, Millipore Sigma S7700, Merck KGaA, Darmstadt, Germany) according to manufacturer’s instructions with some modifications. Briefly, […] in CHAPS lysis buffer and proteins were extracted. Protein extracts and various concentrations of compounds (0 to 5 µM) were used to extend a synthetic telomeric DNA using an enzymatic reaction (30 °C during 20 min), followed by a quantification of telomeric DNA using a telomeric PCR amplification: 95 °C for 3 min, 2 cycles of 95 °C for 20 s, and 49 °C for 20 s, followed by 30 cycles 95 °C for 20 s and 60 °C for 20 s with signal acquisition) in a Stratagene Mx3005P system (Agilent, Les Ulis, France) using specific telomeric PCR quantitative primers. Each sample was measured in technical duplicate with control DNA. For each drug and each dilution, we used biological triplicate of cell lysates.

HEK293 = assay: MTT proliferation test on normal cells, HEK293; assay type: cell-based; settings: Homo sapiens, normal epithelial cells, cytotoxicity, read-out: IC50 Values (μM) ± SEM HEK293
Protocol: The MTT proliferation test on the epithelial cell line HEK293 was performed as pre-viously described. The 50% inhibiting concentrations (IC50) were determined by linear regression analysis.

MCF-7 = assay: MTT antiproliferative assay, MCF-7; assay type: cell-based, human; settings: for IC50: Homo sapiens, MCF7, 72 h, MTT, 72 h, breast cancer cells, read-out: IC50 Values (μM) ± SEM MCF-7; for Selectivity Index HEK293/MCF-7: IC50 HEK293 / IC50 MCF-7
Summary of the method: as §1

[1] = test system: Fc-MYCT (DNA, G4) GGGTGGGTAGGGTGGGTAA; assay: FRET melting; settings: 1 mM K+, 99 mM Li+ (table footnote says 10 mM KCl, 90 mM LiCl); 10 mM lithium cacodylate pH 7.2; 0.2 µM DNA, 2 µM compound
[2] = test system: F21T (DNA, G4) GGGTTAGGGTTAGGGTTAGGG; assay: FRET melting; settings: 10 mM K+, 90 mM Li+; 10 mM lithium cacodylate pH 7.2; 0.2 µM DNA, 2 µM compound
[3] = test system: FBCL-2T (DNA, G4) GGGCGCGGGAGGAAGGGGGCGGG; assay: FRET melting; settings: 10 mM K+, 90 mM Li+; 10 mM lithium cacodylate pH 7.2; 0.2 µM DNA, 2 µM compound
[4] = test system: FdxT (DNA, hairpin, hexaethylene glycol linker between 10 and 11) TATAGCTATATATAGCTATA; assay: FRET melting; settings: 10 mM K+, 90 mM Li+; 10 mM lithium cacodylate pH 7.2; 0.2 µM DNA, 2 µM compound
[5] = test system: human telomeric sequence F21T; assay: FRET-melting, F21T; assay type: binding; settings: ligand 2 μM, DNA 0.2 μM, 10 mM KCl, 90 mM LiCl, pH 7.2
[6] = test system: FK-RAST (DNA, G4) AGGGCGGTGTGGGAAGAGGGA; assay: FRET melting; settings: 10 mM K+, 90 mM Li+; 10 mM lithium cacodylate pH 7.2; 0.2 µM DNA, 2 µM compound
[7] = first binding event (1:1 complex), read-out: Kd1 c-MYC
[8] = second binding event (2:1 complex), read-out: Kd2 c-MYC

IC50 (MDA-MB-231): 0.7 ± 0.16 µM
Kd (c-MYC; [7]): 5.8 µM
Kd (c-MYC; [8]): 100 µM
IC50 (HeLa): 0.82 ± 0.31 µM
IC50 (MCF-7): 0.58 ± 0.02 µM
Compound: CN(C)CCCNCc1ccc(-c2nc(-c3ccc(CNCCCN(C)C)cc3)c3cc(-c4ccccc4)ccc3n2)cc1 [Compound 12b, 2,4-bis{4-[(3-dimethylaminopropyl)aminomethyl]phenyl}-6-phenylquinazoline]
Selectivity Index HEK293/MDA-MB-231 (MDA-MB-231): >42.8
Bound DNA (%) c-MYC (c-MYC): 70%
Selectivity Index HEK293/HeLa (HeLa): >36.6
ΔT1/2 (°C) FdxT (FdxT): 0.4 ± 0.3 °C
telomerase activity compared to control (telomerase; 5 µM compound): reduced drastically
concentration from which MCF-7 telomerase activity is decreased (telomerase; 0 to 5 µM tested): 0.5 µM
IC50 (HEK293): > 30 µM
Selectivity Index HEK293/MCF-7 (MCF-7): >51.7

Compound: CN1CCN(CCCCNCc2ccc(-c3nc(-c4ccc(CNCCCCN5CCN(C)CC5)cc4)c4cc(-c5ccccc5)ccc4n3)cc2)CC1 [Compound 12e, 2,4-bis{4-[(4-(4-methylpiperazin-1-yl)butyl)aminomethyl]phenyl}-6-phenylquinazoline]
IC50 (MDA-MB-231): 0.89 ± 0.46 µM
Bound DNA (%) c-MYC (c-MYC): 75%
Kd (c-MYC; [7]): 4.3 µM
Kd (c-MYC; [8]): 74 µM
IC50 (HeLa): 1.27 ± 0.02 µM
ΔT1/2 (°C) FdxT (FdxT): 5.4 ± 1.6 °C
ΔT1/2 [1]: 19.5 ± 1.0 °C
ΔT1/2 [2]: 33.9 ± 0.5 °C
ΔT1/2 [3]: 22.7 ± 0.4 °C
ΔT1/2 [4]: 5.4 ± 1.6 °C
IC50 (MCF-7): 1.27 ± 0.01 µM
ΔT1/2 (°C) F21T [5]: 33.9 °C and 33.9 ± 0.5 °C
ΔT1/2 [6]: 33.1 ± 2.1 °C

Compound: CN(C)CCCNCc1ccc(-c2cc(-c3ccc(CNCCCN(C)C)cc3)c3cc(-c4ccccc4)ccc3n2)cc1 [Compound 13a, 2,4-bis{4-[(3-dimethylaminopropyl)aminomethyl]phenyl}-6-phenylquinoline]
IC50 (MDA-MB-231): 0.58 ± 0.02 µM
Selectivity Index HEK293/MDA-MB-231 (MDA-MB-231): >51.7
Bound DNA (%) c-MYC (c-MYC): 78%
Kd (c-MYC; [7]): 3.8 µM
Kd (c-MYC; [8]): 36 µM
IC50 (HeLa): 0.5 ± 0.01 µM
Selectivity Index HEK293/HeLa (HeLa): >60.0
ΔT1/2 (°C) FdxT (FdxT): 0.4 ± 0.1 °C
IC50 (HEK293): > 30 µM
IC50 (MCF-7): 0.54 ± 0.01 µM
Selectivity Index HEK293/MCF-7 (MCF-7): >55.5
ΔT1/2 (°C) F21T [5]: 21.5 ± 0.4 °C

Compound: CN1CCN(CCCCNCc2ccc(-c3cc(-c4ccc(CNCCCCN5CCN(C)CC5)cc4)c4cc(-c5ccccc5)ccc4n3)cc2)CC1 [Compound 13d, 2,4-bis{4-[(4-(4-methylpiperazin-1-yl)butyl)aminomethyl]phenyl}-6-phenylquinoline]
IC50 (MDA-MB-231): 1.64 ± 0.11 µM
Bound DNA (%) c-MYC (c-MYC): 44%
Kd (c-MYC; [7]): 20 µM
Kd (c-MYC; [8]): 440 µM
IC50 (HeLa): 2.27 ± 0.89 µM
ΔT1/2 (°C) FdxT (FdxT): 0.8 ± 0.2 °C
ΔT1/2 [3]: 5.0 ± 1.1 °C
IC50 (MCF-7): 1.62 ± 0.09 µM
ΔT1/2 (°C) F21T [5]: 8.0 ± 1.5 °C
